# Earlier results as cited in patent US10993944B2, “Methods and compositions for the treatment of hair loss” (Aneira Pharma, Inc., priority 2019, dated 2021).
# Like-named read-outs stand apart in the source and are kept apart here.
# Tests used:
# hair growth [1] = settings: McCarey 2004
# [2] = not given; remark: listed apart in the source
# hair growth [3] = tested on: hair growth
# [4] = tested on: elevated intraocular pressure; settings: glaucomatous monkey eyes; Gagliuso 2004
# [5] = tested on: elevated intraocular pressure; settings: human glaucoma patients non-responsive to latanoprost; Gandolfi 2003
# [6] = biological target: human recombinant FP receptor (Homo sapiens, UniProt P43088)
# [7] = tested on: dihydrotestosterone (DHT); settings: oral; including prostate gland and scalp
# Chain of human recombinant FP receptor (P43088 whole entry): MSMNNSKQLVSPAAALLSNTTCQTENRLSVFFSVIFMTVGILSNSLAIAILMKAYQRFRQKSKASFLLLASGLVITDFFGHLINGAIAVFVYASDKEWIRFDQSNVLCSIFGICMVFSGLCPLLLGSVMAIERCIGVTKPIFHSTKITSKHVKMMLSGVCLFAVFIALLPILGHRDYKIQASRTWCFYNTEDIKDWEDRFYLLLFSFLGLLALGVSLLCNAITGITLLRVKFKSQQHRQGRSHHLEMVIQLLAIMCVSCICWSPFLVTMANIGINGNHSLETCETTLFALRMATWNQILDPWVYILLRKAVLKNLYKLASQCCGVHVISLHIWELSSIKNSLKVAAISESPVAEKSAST
smiles,measurement,setting,value
CCCCCCCC(=O)CC[C@@H]1[C@@H](C/C=C\CCCC(=O)O)[C@@H](O)C[C@H]1O [uenoprostone free acid],hair growth,hair growth [1],cause no hair growth and in fact may inhibit hair growth
"CCCCCCCC(=O)CC[C@@H]1[C@@H](C/C=C\CCCC(=O)OC(C)C)[C@@H](O)C[C@H]1O [Uenoprostone isopropyl ester, Unoprostone isopropyl ester]",hair growth,hair growth [1],cause no hair growth and in fact may inhibit hair growth
"CC(C)OC(=O)CCC/C=C\C[C@@H]1[C@@H](CC[C@@H](O)CCc2ccccc2)[C@H](O)C[C@@H]1O [Latanoprost, isopropyl ester of 17-phenyl-13,14-dihydro prostaglandin F2a]",fat solubility compared to bimatoprost,,more fat soluble than bimatoprost
same,solubility in water (words),,poorly dissolved in water
same,"solubility in propylene glycol, methanol, ethanol and 2-propanol",highest concentration (5%),Sufficient amount of solubility can be obtained even at the highest concentration (5%)
same,solubility in water (words),listed as latanoprost,poor solubility in water
same,stability in acidic or basic aqueous solutions,[2]; acidic or basic aqueous solutions,no more than 48 hours
same,stability in neutral aqueous solutions,"[2]; neutral aqueous solutions, room temperature",up to one month
Nc1cc(N2CCCCC2)nc(N)[n+]1OS(=O)(=O)[O-] [minoxidil sulphate],potency as hair growth agent compared to minoxidil,hair growth [3],much more potent hair growth agent
CCNC(=O)CCC/C=C\C[C@@H]1[C@@H](/C=C/[C@@H](O)CCc2ccccc2)[C@H](O)C[C@@H]1O [Bimatoprost],effect on elevated intraocular pressure in combination with latanoprost,[4],additive to that of latanoprost
same,response in reducing elevated intraocular pressure,[5],found responsive to bimatoprost
"O=C(O)CCC/C=C\C[C@@H]1[C@@H](CC[C@@H](O)CCc2ccccc2)[C@H](O)C[C@@H]1O [Latanoprost free acid, Latanoprost acid]",potency compared to PGF2α,[6]; human FP receptors,twice the potency of PGF2α
same,potency as an FP receptor ligand compared to latanoprost,[6]; human recombinant FP receptor,two-hundred times more potent than latanoprost
"CC(C)(C)NC(=O)[C@H]1CC[C@H]2[C@@H]3CC[C@H]4NC(=O)C=C[C@]4(C)[C@H]3CC[C@]12C [finasteride, (1S,3aS,3bS,5aR,9aR,9bS,11aS)—N-tert-butyl-9a,11a-dimethyl-7-oxo-1,2,3,3a,3b,4,5,5a,6,9b,10,11-dodecahydroindeno[5,4-f]quinoline-1-carboxamide]",decrease of production of dihydrotestosterone (DHT),[7],about 70%
